Reference: publication PMC10541190 (The Journal of Clinical Investigation, 2023)
Several values for one entry are separate records, joined by “and”; a condition that tells them apart may be missing. Identical values can stand only once. Like-named read-outs stand apart in the source and are kept apart here.

Tests used:
DENV2 = format: cell-based
in vitro [1] = settings: human, Huh7 cell viability (%)
[2] = test system: SARS-CoV-2 (USA-WA1/2020); assay: microbe, parasite or virus in culture; format: cell-based; settings: for EC50: Severe acute respiratory syndrome coronavirus 2, Vero, 24 h, read-out: SARS-CoV-2 EC50
VEEV (TC-83) = format: cell-based
in vitro [3] = settings: African green monkey
[4] = test system: SARS-CoV-2 (Belgium-GHB-03021); format: cell-based
Huh7 cells = settings: human, 0.37 µM
in vitro [5] = settings: human, U-87 MG cell viability (%)
U-87 MG cells = settings: human, 0.37 µM

Row | SMILES | replication of DENV2 (DENV2) | viability at 0.37 µM (in vitro [1]) [%] | viability at 3.33 µM (in vitro [1]) [%] | viability at 10 µM (in vitro [1]) [%] | viability at […] (in vitro [1]) | EC50 [2] [nM] | replication of TC-83 (VEEV (TC-83)) | CC50 (in vitro [3]) [nM] | other results
1 | [N-]=[N+]=CC(=O)OC[C@H](N)C(=O)O [Azaserine] | dose-dependently inhibited replication | 114 | 69.5 | 60.6 | 107% | 700 | dose-dependently inhibited replication | > 20000 | 
2 | CNc1ccc2oc(C[C@H]3O[C@@]4(CC[C@H]3C)O[C@H]([C@H](C)C(=O)c3ccc[nH]3)[C@H](C)C[C@H]4C)nc2c1C(=O)O [Calcimycin] | dose-dependently inhibited replication | 98 | 50.5 | 23.5 | 77.7% and 102% | 600 | dose-dependently inhibited replication | > 20000 | 
3 | O=C1NCN(c2ccccc2)C12CCN(CCCC(c1ccc(F)cc1)c1ccc(F)cc1)CC2 [Fluspirilene] |  | 93.4 | 87.3 | 70.9 | 93.9% and 95.5% | 15200 |  | > 20000 | anti-TC-83 and DENV2 activity compared with anti-SARS-CoV-2 activity (VEEV (TC-83)): more potent
4 | N#C[C@@]1(c2ccc3c(N)ncnn23)O[C@H](CO)[C@@H](O)[C@H]1O [GS-441524] |  |  |  |  |  |  |  |  | rescue of Vero-eGFP cells from SARS-CoV-2-induced lethality, dose response [4]: dose-dependent anti-SARS-CoV-2 activity
5 | CC(=O)O[C@@H]1C[C@H]2C(C)(C)C(=O)C=C[C@]2(C)[C@H]2CC[C@@]3(C)[C@H](c4ccoc4)OC(=O)[C@H]4O[C@]43[C@@]21C [Gedunin] | dose-dependently inhibited replication | 97.4 |  | 85 |  | 1400 | dose-dependently inhibited replication | > 20000 | Huh7 cell viability (%) (Huh7 cells): 96.29%; viability at 0.123 µM (in vitro [1]): 97.1%; viability at 1.111 µM (in vitro [1]): 96.9%; viability at 3.333 µM (in vitro [1]): 94.3%; SARS-CoV-2 infection (%) ([2]; 0.625 μM): 97.75% and 70.79% and 84.27%; SARS-CoV-2 infection (%) ([2]; 1.25 μM): 57.30% and 67.42% and 50.56%; SARS-CoV-2 infection (%) ([2]; 5 μM): 0.67% and 1.04% and 1.31%; SARS-CoV-2 infection (%) ([2]; 20 μM): 0.00337%; viability at 0.37 µM (in vitro [5]): 81.9%; viability at 3.33 µM (in vitro [5]): 79.5%; viability at 10 µM (in vitro [5]): 75.7%; viability at […] (in vitro [5]): 79.1% and 86.8%; Cell viability (%) (Vero cells; 0.625 μM): 106.58% and 104.74%; Cell viability (%) (Vero cells; 1.25 μM): 98.66%; Cell viability (%) (Vero cells; 5 μM): 83.37% and 75.82%; Cell viability (%) (Vero cells; 20 μM): 88.12% and 85.24%; viability at 0.625 µM (in vitro [3]; Cell viability (%), 0.625 μM): 107%; viability at 1.25 µM (in vitro [3]; Cell viability (%), 1.25 μM): 105%; viability at 5 µM (in vitro [3]; Cell viability (%), 5 μM): 82.9%; viability at 20 µM (in vitro [3]; Cell viability (%)): 86.5%
6 | CS(=O)(=O)CCNCc1ccc(-c2ccc3ncnc(Nc4ccc(OCc5cccc(F)c5)c(Cl)c4)c3c2)o1 [Lapati-nib] |  |  |  |  |  |  |  |  | U-87 MG cell viability (%) (U-87 MG cells): 129.28%; SARS-CoV-2 infection (%) ([2]; 0.25 μM): 46.09% and 52.84% and 47.65%; SARS-CoV-2 infection (%) ([2]; 0.74 μM): 18.11% and 21.05% and 22.00% and 22.88% and 28.58%; SARS-CoV-2 infection (%) ([2]; 2.22 μM): 20.01% and 16.81% and 28.24% and 14.29% and 20.00%; viability at 20 µM (in vitro [3]; Cell viability (%)): 67%
7 | O[C@H]1[C@H]2c3cc4c(cc3CN3CCC(=C[C@@H]1O)[C@H]23)OCO4 [Lycorine] | dose-dependently inhibited replication | 93.2 | 68.1 | 66.6 | 82.9% and 95% | 500 | dose-dependently inhibited replication | > 20000 | viability at 0.37 µM (in vitro [5]): 92.9%; viability at 3.33 µM (in vitro [5]): 67.1%; viability at 10 µM (in vitro [5]): 61.2%; viability at […] (in vitro [5]): 81.7% and 97.3%
8 | COc1c(O)cc2oc3cc(O)c(CC=C(C)C)c(O)c3c(=O)c2c1CC=C(C)C [Mangostin, 9H-Xanthen-9-one, 1,3,6-trihydroxy-7-methoxy-2,8-bis (3-methyl-2-butenyl)-] |  |  |  |  |  |  |  |  | Fluorescence (%area) [4]: 102.5 %area
